Values of other authors as cited in US4096336A, “5,6-Benzo analogues or prostaglandin E” (Miles Laboratories, Inc., priority 1977, dated 1978).
Read-outs that look alike come from different tables or passages of the source.

Tests used:
growth hormone = details: rats
gastric secretion [1] = details: dogs
gastric secretion [2] = details: man
[3] = system: ovarian progesterone secretion; details: sheep
thyroid activity = details: mice
adrenal glands = details: hypophysectimized rats
[4] = system: smooth muscle of the vas deferens; details: mammalian male reproductive system
[5] = system: motor pathways in the central nervous system
[6] = system: adrenergic nervie endings; details: guinea pig
tracheal smooth muscle = details: in vitro preparations
blood platelets = details: in vitro
[7] = system: female reproductive system
luteolytic factors = details: variety of mammals

CCCCC[C@H](O)/C=C/[C@H]1C=CC(=O)[C@@H]1CCCCCCC(=O)O [PGA1]
synthesis of growth hormone (growth hormone): increased synthesis of that hormone | gastric secretion (gastric secretion [1]): inhibit gastric secretion | gastric secretion (gastric secretion [2]): exhibits similar activity in man

CCCCC[C@H](O)/C=C/[C@H]1[C@H](O)CC(=O)[C@@H]1CCCCCCC(=O)O [PGE1, prostaglandin E1]
release of growth hormone (growth hormone): increase release of growth hormone | ovarian progesterone secretion [3]: inhibit ovarian progesterone secretion | thyroid activity (thyroid activity): increase thyroid activity | steriodogenesis in the adrenal glands (adrenal glands): stimulate steriodogenesis in the adrenal glands | effect on smooth muscle of the vas deferens [4]: contracts the smooth muscle of the vas deferens | transmission in motor pathways [5]: retards | transmitter release from adrenergic nerve endings [6]: inhibit transmitter release | gastric secretion (gastric secretion [1]): inhibit gastric secretion | effect on tracheal smooth muscle (tracheal smooth muscle): relax | thrombogenesis (blood platelets): inhibits thrombogenesis in vitro

CCCCC[C@H](O)/C=C/[C@H]1[C@H](O)CC(=O)[C@@H]1C/C=C\CCCC(=O)O [PGE2]
release of growth hormone (growth hormone): increase release of growth hormone | thyroid activity (thyroid activity): increase thyroid activity | steriodogenesis in the adrenal glands (adrenal glands): stimulate steriodogenesis in the adrenal glands | oxytocic effects ([7]; inducing labor): exerts potent oxytocic effects in inducing labor | transmitter release from adrenergic nerve endings [6]: inhibit transmitter release | gastric secretion (gastric secretion [1]): inhibit gastric secretion | effect on tracheal smooth muscle (tracheal smooth muscle): relax

CCCCC[C@H](O)/C=C/[C@@H]1[C@@H](CCCCCCC(=O)O)[C@@H](O)C[C@H]1O [PGF1α]
ovarian progesterone secretion [3]: inhibit ovarian progesterone secretion | luteolytic action (luteolytic factors): act as luteolytic factors | thyroid activity (thyroid activity): increase thyroid activity | steriodogenesis in the adrenal glands (adrenal glands): stimulate steriodogenesis in the adrenal glands

CCCCC[C@H](O)/C=C/[C@@H]1[C@@H](CCCCCCC(=O)O)[C@H](O)C[C@H]1O [PGF1β]
thyroid activity (thyroid activity): increase thyroid activity

CCCCC[C@H](O)/C=C/[C@@H]1[C@@H](C/C=C\CCCC(=O)O)[C@@H](O)C[C@H]1O [PGF2α]
induction of spontaneous abortions ([7]; early pregnancy): induces spontaneous abortions in early pregnancy | effect on fertility / gestation ([7]; female reproductive system): has contragestational effects | transmission in motor pathways [5]: facilitates transmission in motor pathways in the central nervous system | effect on tracheal smooth muscle (tracheal smooth muscle): contracts the smooth muscle
